From the NIST ThermoML archive (doi:10.1021/acs.jced.9b00794)

Assay: mn = molality of the nth substance listed, in mol/kg
Settings: 99.6 kPa, Liquid, Vibrating tube method

NC(N)=O [urea] + O
mass density [kg/m3]
Settings	288.15 K	298.15 K	308.15 K	318.15 K	328.15 K
m1 = 0.09134	1000.61	998.5	995.42	991.58	987.02
m1 = 0.2167	1002.67	1000.46	997.32	993.41	988.81
m1 = 0.3509	1004.84	1002.52	999.32	995.36	990.71
m1 = 0.5181	1007.5	1005.07	1001.77	997.75	993.05
m1 = 0.6698	1009.88	1007.34	1003.96	999.88	995.14
m1 = 0.8161	1012.14	1009.5	1006.05	1001.91	997.13
m1 = 0.9745	1014.54	1011.8	1008.27	1004.08	999.25
m1 = 1.195	1017.83	1014.96	1011.32	1007.05	1002.16
m1 = 1.33	1019.8	1016.85	1013.15	1008.83	1003.92
m1 = 1.489	1022.09	1019.05	1015.27	1010.91	1005.95
m1 = 1.6	1023.67	1020.57	1016.75	1012.35	1007.36
m1 = 1.707	1025.18	1022.02	1018.15	1013.72	1008.7
m1 = 1.898	1027.81	1024.56	1020.6	1016.12	1011.06
m1 = 2.034	1029.63	1026.33	1022.32	1017.8	1012.71

NC(N)=O [urea] + NC=O
mass density [kg/m3]
Settings	288.15 K	298.15 K	308.15 K	318.15 K	328.15 K
m1 = 0.1057	1138.95	1130.54	1122.1	1113.61	1105.1
m1 = 0.1893	1139.77	1131.36	1122.91	1114.44	1105.94
m1 = 0.3308	1141.12	1132.72	1124.29	1115.82	1107.33
m1 = 0.4766	1142.51	1134.11	1125.69	1117.23	1108.75
m1 = 0.675	1144.34	1135.96	1127.55	1119.11	1110.64
m1 = 0.7518	1145.05	1136.67	1128.26	1119.83	1111.37
m1 = 0.8498	1145.93	1137.56	1129.16	1120.74	1112.28
m1 = 1.07	1147.9	1139.54	1131.15	1122.75	1114.3
m1 = 1.292	1149.82	1141.49	1133.11	1124.72	1116.29
m1 = 1.33	1150.15	1141.82	1133.44	1125.05	1116.63
m1 = 1.424	1150.95	1142.62	1134.26	1125.87	1117.45
m1 = 1.555	1152.06	1143.73	1135.38	1127	1118.59
m1 = 1.681	1153.09	1144.79	1136.43	1128.06	1119.66
m1 = 1.718	1153.4	1145.09	1136.75	1128.38	1119.98
m1 = 1.824	1154.26	1145.96	1137.63	1129.27	1120.87
m1 = 1.999	1155.67	1147.39	1139.06	1130.7	1122.32
